Where two headings read alike, the source gives them in different places.
Legend:
[1] = test system: 2-week-old cucumber plants; conditions: in vivo
Experimental: Ethoxylated fatty esters (e.g., polyethylene 20 sorbitan monooleate, polyethylene 20 sorbitan monolaurate), ethoxylated alcohols (e.g., Genapol UD-80, UD 110, O-100 and O-200, Clariant Corporation) were chosen for phytotoxic screening in this study. […] These formulations were diluted 100 times with tap water and then sprayed on 2-week-old cucumber plants. […] Precipitation would happen to Oxylignin (sodium salt) when pH reached to 8.0 and then increased with pH.

[2] = Sun exposure experiment in vials, HPLC analysis of hinokitiol; type: physicochemical
Experimental: HPLC analysis: HPLC systems include waters 2695 separation modules with auto sampler, waters 2996 photodiode array detector, Masslynx software and Sunfire™ C18 column (5 μm, 4.6×150 mm). […] Gradient mobile phase was adopted. […] Hinokitiol complex with citric acid was monitored at 320 nm. The column temperature was kept at 30° C. during the experiment. […] The vials were put on a rack. […] After sunlight exposure, rack and vials were immediately stored at 4° C. or subsamples were taken for HPLC analysis. Visual observation was recorded before subsamples were taken. Vials were vortexed very well before subsamples were taken. Triplicates were carried out for each sample. All sun light exposure in the later studies was the same unless stated. Temperature in all this studies varied between 75 to 95° F.

Substance	phytotoxicity on 2-week-old cucumber plants ([1]; pH 10)	Degradation of hinokitiol (%) [2]	degradation of hinokitiol in the formulation compared with other UV protection agents [2]	Degradation of hinokitiol (%) ([2]; pH 7.4)	Degradation of hinokitiol (%) ([2]; pH 8.29)	Degradation of hinokitiol (%) ([2]; pH 9.61)	phytotoxicity (shown or not) [1]
Humic acid	no obvious phytotoxicity	40 ± 1%	much slower	40 ± 3%	30 ± 2%	21 ± 4%	
polyethylene 20 sorbitan monooleate							did not show any obvious phytotoxicity

— patent US20090029856A1, “Hinokitiol As A Plant Pesticide” (priority 2007, published 2009)
